Active and inactive are the calls of the source. The rule behind the calls is not given here.
Columns and labels:
Quadruplex DNA = assay: Inhibition of c-myc G4-quadruplex DNA transcriptional activity in human MDA-MB-231 cells incubated for 24 hrs by RT-PCR analysis; format: cell-based
[1] = biological target: T1, DNA topoisomerase 1 (Homo sapiens) (UniProt P11387); assay: Inhibition of human topoisomerase 1 mediated relaxation of supercoiled pHOT1 DNA at 5 to 20 uM incubated for 30 mins by agarose gel electrophoresis; conditions: dose 5-20 µM
T1 sequence (whole entry): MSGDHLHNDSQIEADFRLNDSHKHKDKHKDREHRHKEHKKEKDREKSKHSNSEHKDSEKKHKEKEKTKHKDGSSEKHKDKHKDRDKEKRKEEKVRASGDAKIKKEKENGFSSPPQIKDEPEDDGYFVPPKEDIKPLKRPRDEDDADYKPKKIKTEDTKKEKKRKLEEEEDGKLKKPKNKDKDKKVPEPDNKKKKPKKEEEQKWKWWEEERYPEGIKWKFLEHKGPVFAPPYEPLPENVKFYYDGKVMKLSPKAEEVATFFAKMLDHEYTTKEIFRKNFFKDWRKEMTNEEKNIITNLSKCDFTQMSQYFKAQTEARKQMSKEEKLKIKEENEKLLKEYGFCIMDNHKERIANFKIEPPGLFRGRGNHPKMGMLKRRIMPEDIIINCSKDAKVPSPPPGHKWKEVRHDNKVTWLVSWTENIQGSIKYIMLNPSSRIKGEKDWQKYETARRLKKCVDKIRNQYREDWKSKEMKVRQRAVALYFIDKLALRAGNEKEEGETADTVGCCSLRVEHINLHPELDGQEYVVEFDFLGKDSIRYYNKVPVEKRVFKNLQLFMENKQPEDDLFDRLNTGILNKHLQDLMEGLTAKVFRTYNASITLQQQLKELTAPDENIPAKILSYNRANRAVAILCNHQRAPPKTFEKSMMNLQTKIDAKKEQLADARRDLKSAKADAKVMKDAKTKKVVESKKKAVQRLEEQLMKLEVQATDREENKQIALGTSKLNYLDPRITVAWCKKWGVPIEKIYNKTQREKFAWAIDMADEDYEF

MDA-MB-231 [2] = assay: Antiproliferative activity against human MDA-MB-231 cells assessed as inhibition of cell growth incubated for 24 hrs by CCK8 assay; format: functional, cell-based; conditions: MDA-MB-231, 24 h
[3] = biological target: T1, DNA topoisomerase 1 (Homo sapiens); assay: Inhibition of human topoisomerase 1 assessed as DNA intercalation at 1.2 uM using relaxed pHOT-1 DNA as substrate preincubated with DNA for 10 mins followed by enzyme addition and measured after 30 mins by agarose gel electrophoresis; conditions: time 40.0 min
MDA-MB-231 [4] = assay: Antitumor activity against human MDA-MB-231 cells xenografted in BALB/c mouse assessed as tumor growth inhibition measured at 2.5 mg/kg, ip administered every other day for 20 days; format: functional; conditions: time 20.0 day
MDA-MB-231 [5] = assay: Antiproliferative activity against human MDA-MB-231 cells assessed as inhibition in cell growth at 20 uM incubated for 24 hrs by CCK8 assay; format: functional, cell-based
[6] = Toxicity in human MDA-MB-231 cells xenografted BALB/c mouse assessed as body weight loss at 2.5 mg/kg, ip administered every other day for 20 days; format: organism-based; conditions: in vivo, 480 h, time 20 day

Row | SMILES | inhibition (Quadruplex DNA) | inhibition [1] | IC50 (MDA-MB-231 [2]) [µM] | inhibition [3] | Activity (MDA-MB-231 [4]) | Activity (MDA-MB-231 [5]) | Activity [6]
1 | CN1CCN(c2ccc3c(c2)c2cc(N4CCN(C)CC4)ccc2c2nc4cc(F)ccc4nc32)CC1 | Active | Active | 1.1 |  |  |  | 
2 | CN1CCN(c2ccc3c(c2)c2cc(N4CCN(C)CC4)ccc2c2nc4cc(C(F)(F)F)ccc4nc32)CC1 | inactive | inactive | 5.6 |  |  |  | 
3 | CC[n+]1c(-c2ccccc2)c2cc(N)ccc2c2ccc(N)cc21 |  |  |  | Active |  |  | 
4 | COc1cccc2c1C(=O)c1c(O)c3c(c(O)c1C2=O)C[C@@](O)(C(=O)CO)C[C@@H]3O[C@H]1C[C@H](N)[C@H](O)[C@H](C)O1 [DOXORUBICIN] |  |  |  |  | Dose-Dependent Effect | Active | Toxic
5 | COc1cc2nc3c4ccc(N5CCN(C)CC5)cc4c4cc(N5CCN(C)CC5)ccc4c3nc2cc1OC | inactive | inactive | 16.8 |  |  |  | 
6 | CC1CCN(c2cc3nc4c5ccc(N6CCN(C)CC6)cc5c5cc(N6CCN(C)CC6)ccc5c4nc3cc2F)CC1 | inactive | inactive | 9.8 |  |  |  | 
7 | Cc1cc2nc3c4ccc(N5CCN(C)CC5)cc4c4cc(N5CCN(C)CC5)ccc4c3nc2cc1C | Active | Active | 2.7 |  |  |  | 
8 | CN1CCN(c2ccc3c(c2)c2cc(N4CCN(C)CC4)ccc2c2nc4cnccc4nc32)CC1 | inactive | Active | 17.5 |  |  |  | 
